The record followed here is patent US11814445B2, “Cyclic polypeptides for PCSK9 inhibition” (Ra Pharmaceuticals, Inc., priority 2018, dated 2023).

One may read the IC50 as the point on the concentration scale where inhibition reaches its midpoint.

Numbered stars: 1 amine (or outer) side, 2 acyl side, 3 side chain; on linkers, the order of the positions; unused ones are H or OH. Bridge positions count the residues as written; N and C are the ends. Square brackets hold non-standard residues; d marks the D form. Peptide text beside a SMILES is read from it. Phe(4-tBu) = CC(C)(C)c1ccc(C[C@H](N)C(=O)O)cc1; Trp(5-F) = N[C@@H](Cc1c[nH]c2ccc(F)cc12)C(=O)O; X1 = O=C(CCSCc1cccc(CSCCN[*:1])c1)[*:2]; 2Nal = N[C@@H](Cc1ccc2ccccc2c1)C(=O)O; mXylylene = c1cc(C[*:1])cc(C[*:2])c1; Bta = N[C@@H](Cc1csc2ccccc12)C(=O)O; hCha = N[C@@H](CCC1CCCCC1)C(=O)O; Cha = N[C@@H](CC1CCCCC1)C(=O)O; Pip = O=C(O)[C@@H]1CCCCN1; Mpa = O=C(O)CCS

Format in all cases: binding
Assay [1] deals with T1, PCSK9 (Homo sapiens, UniProt Q8NBP7).
T1 construct: biotin (biotinylated)
T1 sequence (Q8NBP7 153-692): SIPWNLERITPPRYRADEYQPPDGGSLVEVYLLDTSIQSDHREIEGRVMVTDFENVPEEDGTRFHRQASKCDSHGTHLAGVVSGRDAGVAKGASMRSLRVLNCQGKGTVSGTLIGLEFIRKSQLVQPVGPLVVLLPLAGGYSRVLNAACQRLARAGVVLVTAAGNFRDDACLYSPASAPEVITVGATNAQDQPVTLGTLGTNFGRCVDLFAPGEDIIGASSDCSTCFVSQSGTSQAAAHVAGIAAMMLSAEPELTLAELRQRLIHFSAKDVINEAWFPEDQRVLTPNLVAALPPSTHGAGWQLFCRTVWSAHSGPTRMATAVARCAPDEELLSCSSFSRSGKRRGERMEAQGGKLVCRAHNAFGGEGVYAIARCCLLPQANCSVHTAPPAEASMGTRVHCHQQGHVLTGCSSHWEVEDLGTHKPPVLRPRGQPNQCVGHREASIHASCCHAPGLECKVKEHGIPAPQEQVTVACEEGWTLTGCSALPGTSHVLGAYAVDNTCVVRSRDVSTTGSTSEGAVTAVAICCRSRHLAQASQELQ
Description: PCSK9 Alexa FRET Standard assay (displacement of AlexaFluor647 tagged cyclic peptide Reagent A). Conditions: 0.5 nM PCSK9, 20 nM AF cyclic peptide Reagent A. The protocol:
A solution containing 1 nM biotinylated PCSK9+2.5 nM Lance Streptavidin Europium (Strep-Eu) was made in 50 mM HEPES pH 7.4, 0.15 M NaCl, 5 mM CaCl2), 0.01% BSA, and 0.01% Surfactant P20. A separate solution containing 40 nM of the AlexaFluor tagged cyclic peptide was made in the same buffer system. An Echo was used to transfer 0.750 ul of compound to an assay plate followed by the addition of 15 ul of PCSK9+Stept-Eu and 15 ul of AF peptide. The final assay volume was 30.750 ul containing 0.5 nM PCSK9, 1.25 nM Strep-Eu, and 20 nM AF cyclic peptide. The reaction was incubated at room temperature for at least two hours prior to fluorescence measurements using an Envision Multilabel Reader. IC50 values were determined by fitting data to a sigmoidal dose-response curve using nonlinear regression. Ki was then calculated from the IC50 and the KD of AF cyclic peptide. Counts (B-counts) of the europium-labeled PCSK9 were followed to observe if compounds were […]. A fall off of the B-counts likely indicated a false positive of inhibition. Data from this procedure was reported as “A=‘numerical value’ (nanomolar)”

For assay [2], the target named is human PCSK9 / human LDLR EGFa domain (Homo sapiens, UniProt Q8NBP7). The experiment in a line: TR-FRET assay of inhibition of the PCSK9-LDLR protein-protein interaction. The note with it: 20 nM human PCSK9, 20 nM human LDLR EGFa domain, 2 hours room temperature. In outline:
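Biotinylated PCSK9 (20 nM) and His-tagged LDLR EGFa domain (20 nM) were incubated 2 h at room temperature with 5 nM Ulight-streptavidin and 5 nM Eu-anti-His in HEPES/NaCl/CaCl2 buffer with 0.01% BSA and 0.01% P20. TR-FRET was read; half-maximal inhibitory concentrations came from 4-parameter dose-response fits.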
(TR-FRET usually uses a lanthanide donor and a delayed reading to cut background.)

Assay [3] addresses T1, PCSK9. The experiment in a line: PCSK9 Alexa FRET Plus assay (displacement of AlexaFluor647 tagged cyclic peptide Reagent B). Conditions: 0.5 nM PCSK9, 960 nM AF cyclic peptide Reagent B. The protocol:
A solution containing 1 nM biotinylated PCSK9+2.5 nM Lance Streptavidin Europium (Strep-Eu) was made in 50 mM HEPES pH 7.4, 0.15 M NaCl, 5 mM CaCl2), 0.01% BSA, and 0.01% Surfactant P20. A separate solution containing 1920 nM of the AlexaFluor tagged cyclic peptide was made in the same buffer system. An Echo was used to transfer 0.075 ul of compound plus 0.675 ul of DMSO to each well of an assay plate followed by the addition of 15 ul of PCSK9+Stept-Eu and 15 ul of AF peptide. The final assay volume was 30.750 ul containing 0.5 nM PCSK9, 1.25 nM Strep-Eu, and 960 nM AF cyclic peptide. The reaction was incubated at room temperature for at least two hours prior to fluorescence measurements using an Envision Multilabel Reader. IC50 values were determined by fitting data to a sigmoidal dose-response curve using nonlinear regression. Ki was then calculated from the IC50 and the KD of AF cyclic peptide. Counts (B-counts) of the europium-labeled PCSK9 were followed to observe if compounds were adversely affecting PCSK9. A fall off of the B-counts likely indicated a false positive of inhibition. Data from this procedure was reported as “P=‘numerical value’ (nanomolar)”

Sequence of human PCSK9 / human LDLR EGFa domain (Q8NBP7 153-692): as above

With `C[C@@H]1NC(=O)[C@@H]2CCCN2C(=O)[C@H](Cc2ccc(C(C)(C)C)cc2)NC(=O)[C@H](Cc2c[nH]c3ccc(F)cc23)NC(=O)CNC(=O)[C@H](CCCCN)NC(=O)CCSCc2cccc(c2)CSC[C@@H](C(N)=O)NC(=O)[C@@H]2CCCN2C(=O)[C@H](Cc2ccc(O)cc2)NC1=O` [Compound 016] ([Mpa]KG[Trp(5-F)][Phe(4-tBu)]PAYPC-NH2; linker 1-10 via mXylylene), the IC50 in assay [1], in assay [2] and in assay [3] was 1 to 100 nM each time.

In the case of `C[C@@H]1NC(=O)[C@@H]2CCCN2C(=O)[C@H](Cc2csc3ccccc23)NC(=O)[C@H](Cc2c[nH]c3ccc(F)cc23)NC(=O)CNC(=O)[C@H](CCCCN)NC(=O)CCSCc2cccc(c2)CSC[C@@H](C(N)=O)NC(=O)[C@@H]2CCCN2C(=O)[C@H](Cc2ccc(O)cc2)NC1=O` [Compound 024] ([Mpa]KG[Trp(5-F)][Bta]PAYPC-NH2; linker 1-10 via mXylylene), the IC50 in assay [1], in assay [2] and in assay [3] was 1 to 100 nM in each case.

On to `C[C@@H]1NC(=O)[C@@H]2CCCN2C(=O)[C@H](CC2CCCCC2)NC(=O)[C@H](Cc2c[nH]c3ccc(F)cc23)NC(=O)CNC(=O)[C@H](CCCCN)NC(=O)CCSCc2cccc(c2)CSC[C@@H](C(N)=O)NC(=O)[C@@H]2CCCN2C(=O)[C@H](Cc2ccc(O)cc2)NC1=O` [Compound 025] ([Mpa]KG[Trp(5-F)][Cha]PAYPC-NH2; linker 1-10 via mXylylene), for which the IC50 in assay [1], in assay [2] and in assay [3] was 1 to 100 nM each time.

For the compound `C[C@@H]1NC(=O)[C@@H]2CCCN2C(=O)[C@H](CCC2CCCCC2)NC(=O)[C@H](Cc2c[nH]c3ccc(F)cc23)NC(=O)CNC(=O)[C@H](CCCCN)NC(=O)CCSCc2cccc(c2)CSC[C@@H](C(N)=O)NC(=O)[C@@H]2CCCN2C(=O)[C@H](Cc2ccc(O)cc2)NC1=O` [Compound 026] ([Mpa]KG[Trp(5-F)][hCha]PAYPC-NH2; linker 1-10 via mXylylene), the IC50 lay in the range of 1 to 100 nM in assay [1], 1 to 100 nM in assay [2] and 100 to 500 nM in assay [3].

Take `C[C@@H]1NC(=O)CCSCc2cccc(c2)CSCCNC(=O)[C@@H]2CCCN2C(=O)[C@H](Cc2ccccc2)NC(=O)[C@H](C)NC(=O)[C@@H]2CCCN2C(=O)[C@H](Cc2c[nH]c3ccc(F)cc23)NC(=O)[C@H](Cc2c[nH]c3ccc(F)cc23)NC(=O)[C@@H](C)NC1=O` [Compound 062] (cyclo(AFP[X1]A[dA][Trp(5-F)][Trp(5-F)]P)): the IC50 was in the range of 100 to 1000 nM in assay [1], 1 to 100 nM in assay [2] and 1 to 100 nM in assay [3].

As to `C[C@@H]1NC(=O)CCSCc2cccc(c2)CSCCNC(=O)[C@@H]2CCCN2C(=O)[C@H](Cc2ccc3ccccc3c2)NC(=O)[C@H](C)NC(=O)[C@@H]2CCCCN2C(=O)[C@H](Cc2c[nH]c3ccc(F)cc23)NC(=O)[C@H](Cc2c[nH]c3ccc(F)cc23)NC(=O)[C@@H](C)NC1=O` [Compound 089] (cyclo([2Nal]P[X1]A[dA][Trp(5-F)][Trp(5-F)][Pip]A)), the IC50 in assay [1], in assay [2] and in assay [3] was 1 to 100 nM throughout.
